According to article PMC9134315, “Systemic Administration of a Brain Permeable Cdk5 Inhibitor Alters Neurobehavior” (Frontiers in Pharmacology, 2022):

Key:
Cdk2/CyclinE = Cdk2/CyclinE (Homo sapiens, UniProt P24941); assay: In vitro dose-response kinase inhibition assay; assay type: biochemical
Protocol: (§1) In vitro phosphorylation reactions were conducted as dose-response kinase inhibition assays with three highly homologous CDKs, namely, Cdk2/CyclinE (1.5 nM), CDK5/p25 (0.35 nM), and Cdk9/CyclinT1 (9 nM). Briefly, the abovementioned kinases were incubated with ATP (30 μM), the corresponding substrate (20 μM), and an increasing concentration of 25–106 (0–5 μM) for 30 min.

Cdk9/CyclinT1 = Cdk9/CyclinT1 (Homo sapiens, UniProt P50750); assay: In vitro dose-response kinase inhibition assay; assay type: biochemical; conditions: 30 min, ATP 30 μM
Protocol: as §1

CDK5/p25 = CDK5/p25 (Homo sapiens, UniProt Q00535); assay: In vitro dose-response kinase inhibition assay; assay type: biochemical
Protocol: as §1

Cdk5 [1] = target: T1, Cdk5 (Mus musculus, UniProt P49615); assay: Ex vivo acute striatal brain slice pharmacology, immunoblot of phospho-Thr75 DARPP-32 and phospho-Ser1116 NR2B; assay type: cell-based; conditions: acute striatal slices, 1 h treatment, 0-10 µM; read-out: IC50, Cdk5-dependent phosphorylation of DARPP-32 and NR2B
T1 construct: from tissue; host or cells: striatum of wild-type C57BL/6 mice (acute slices, or lysates after I.V. dosing)
Protocol: Brain slice pharmacology was performed as described ([Nishi et al., 2000]). Briefly, the mice were decapitated, and the brains were rapidly dissected and submerged in ice-cold normal Kreb’s solution (124 mM NaCl, 4 mM KCl, 26 mM NaHCO3, 1.25 mM KH2PO4, 1.5 mM MgSO4, 10 mM D-glucose, and 1.5 mM CaCl2). The brains were subsequently sectioned into normal Kreb’s solution at 350 µ thickness. The brain slices were transferred to a 30°C solution of normal Kreb’s containing 10 µM deaminase for a 1-h recovery period. The sections were then incubated in normal Kreb’s solution with and without the indicated compounds across the dose and time ranges indicated. The sections were rapidly snap-frozen in dry ice to terminate treatment regimes.
(§2) Immunoblotting was performed as previously described ([Umfress et al., 2021]). Mouse brains were rapidly dissected in an ice-cold solution of 50 mM NaF/PBS. The regions of interest were further dissected out and rapidly snap-frozen in dry ice. The frozen tissue was homogenized in boiling lysis buffer (1% SDS, 50 mM NaF) and sonicated with several three to four pulses at 40 dB. The samples were subsequently denatured at 90°C for 5 min. Protein concentration was determined by the BCA assay, and homogenates were diluted in 4x sample buffer, separated by SDS-PAGE, and transferred to 0.45-µm nitrocellulose membranes, blocked with 5% milk solution (1 h), and probed with primary antibodies (overnight). The following antibodies were used in the study: phospho-Ser549 synapsin I (Phosphosolutions), total synapsin I (Phosphosolutions), actin (Invitrogen), phospho-Ser1116 (in-house) ([Plattner et al., 2014]), and total NR2B (Phosphosolutions), phospho-Thr75, and total DARPP-32 (Cell Signaling Technology). Visualization was performed using the Licor CLX membrane scanner and Licor secondary antibodies.
In order to assess the functional inhibition of Cdk5 in intact brain tissue by the four compounds summarized in Figure 1, acutely prepared striatal slices were treated in a dose-dependent manner (0, 0.25, 0.5, 1, 5, and 10 µM) with each inhibitor for 1 h, and Cdk5 activity was assessed via immunoblotting the phosphorylation of established Cdk5 sites, phospho-Thr75 DARPP-32 and phospho-Ser1116 NR2B ([Bibb et al., 1999]; [Plattner et al., 2014]).

C57BL/6 mice = assay: Tail suspension test; assay type: in vivo, mouse; conditions: 50 mg/kg, 6 h after injection
Protocol: The tail suspension test was conducted as previously described ([Plattner et al., 2015]). The mice were suspended by their tails for a total duration of 6 min and video-recorded. Post-hoc blind experimentalists quantified the duration and latency of immobility for each randomized video. The average quantitative determents of each observer were averaged to generate the final analytic values of motion.
Next, we tested the effects of 25–106 on mouse performance in the tail-suspension test to measure depressive-like phenotypes in mice ([Cryan et al., 2005]; [Can et al., 2012]). […] Thus, 25–106 modulated several neurobehavioral behaviors that have previously been linked to Cdk5.

Cdk5 [2] = target: T1, Cdk5; assay: In vivo Cdk5 inhibition after I.V. injection, immunoblot of striatal phospho-Ser549 synapsin I; conditions: for phospho-Ser549 synapsin I levels in the striatum: 50 mg/kg I.V.
Protocol: The wild-type group housed male C57BL/6 mice 10–12 weeks of age were used for all in vivo, ex vivo, and behavioral studies. This age range was selected to be consistent with previous studies of conditional Cdk5 knockout mice ([Plattner et al., 2015]). 25–106 was administered in a 20-fold dose range intravenously (I.V.) at 10, 50, 100, and 200 mg/kg for pharmacokinetic studies. This delivery mode was used as I.V. injections to avoid first-pass drug metabolism observed using other injection methods ([Pond and Tozer, 1984]). […] All animal experiments were performed under approved protocols by the University of Alabama at Birmingham (UAB) Institutional Animal Care and Use Committees and in accordance with the guidelines of the Animal Welfare Act and the Guide for the Care and Use of Laboratory Animals.
as §2
Each of the four compounds tested in brain slices was further screened for their ability to penetrate the blood–brain barrier (BBB) and inhibit Cdk5-dependent activity in vivo. For these studies, cohorts of mice were treated with each compound via I.V. injection (50 mg/kg), and brain striatal lysates from various time points were subjected to quantitative immunoblot analysis for phosho-Ser549 Synapsin I levels. Three compounds, 20–107, 20–132, and 20–143, had no effect on Cdk5 activity compared to that of vehicle alone (data not shown). […] Moreover, this effect persisted even 24 h after dosing.

CDK5/p25, sequence (Q00535 whole entry, species assumed): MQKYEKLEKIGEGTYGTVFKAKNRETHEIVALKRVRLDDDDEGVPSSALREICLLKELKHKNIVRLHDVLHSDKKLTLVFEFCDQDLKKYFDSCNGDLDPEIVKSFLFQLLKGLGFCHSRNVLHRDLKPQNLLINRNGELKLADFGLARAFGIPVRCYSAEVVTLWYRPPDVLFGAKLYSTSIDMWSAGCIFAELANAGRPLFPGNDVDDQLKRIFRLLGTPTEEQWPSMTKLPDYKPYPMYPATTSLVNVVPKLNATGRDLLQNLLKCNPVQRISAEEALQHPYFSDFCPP
CDK5/p25, sequence (Q15078 99-307 partner limits assumed, species assumed): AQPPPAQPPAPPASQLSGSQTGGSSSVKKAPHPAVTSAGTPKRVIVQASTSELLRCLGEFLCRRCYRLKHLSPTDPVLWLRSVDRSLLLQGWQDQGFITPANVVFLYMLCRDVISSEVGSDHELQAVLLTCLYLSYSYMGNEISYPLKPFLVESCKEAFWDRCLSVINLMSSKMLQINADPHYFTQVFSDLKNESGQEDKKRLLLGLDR
T1 sequence (P49615 whole entry): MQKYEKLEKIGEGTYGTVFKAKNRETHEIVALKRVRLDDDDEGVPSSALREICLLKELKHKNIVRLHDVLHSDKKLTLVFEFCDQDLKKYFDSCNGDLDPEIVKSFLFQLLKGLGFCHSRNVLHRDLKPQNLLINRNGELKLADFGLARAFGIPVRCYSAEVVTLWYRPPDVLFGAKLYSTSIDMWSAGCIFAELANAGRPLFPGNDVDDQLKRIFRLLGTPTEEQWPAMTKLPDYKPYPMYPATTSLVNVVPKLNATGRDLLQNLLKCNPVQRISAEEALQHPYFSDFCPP
T1 sequence (P61809 2-307 partner limits assumed): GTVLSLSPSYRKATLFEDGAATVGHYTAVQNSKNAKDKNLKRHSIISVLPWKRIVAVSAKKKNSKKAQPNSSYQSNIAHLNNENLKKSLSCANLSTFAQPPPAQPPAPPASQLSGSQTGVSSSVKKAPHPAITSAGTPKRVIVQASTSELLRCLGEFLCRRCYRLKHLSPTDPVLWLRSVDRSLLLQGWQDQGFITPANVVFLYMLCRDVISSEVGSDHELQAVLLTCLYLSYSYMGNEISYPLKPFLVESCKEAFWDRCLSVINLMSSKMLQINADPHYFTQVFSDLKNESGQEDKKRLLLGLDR
Cdk9/CyclinT1, sequence (P50750 whole entry, species assumed): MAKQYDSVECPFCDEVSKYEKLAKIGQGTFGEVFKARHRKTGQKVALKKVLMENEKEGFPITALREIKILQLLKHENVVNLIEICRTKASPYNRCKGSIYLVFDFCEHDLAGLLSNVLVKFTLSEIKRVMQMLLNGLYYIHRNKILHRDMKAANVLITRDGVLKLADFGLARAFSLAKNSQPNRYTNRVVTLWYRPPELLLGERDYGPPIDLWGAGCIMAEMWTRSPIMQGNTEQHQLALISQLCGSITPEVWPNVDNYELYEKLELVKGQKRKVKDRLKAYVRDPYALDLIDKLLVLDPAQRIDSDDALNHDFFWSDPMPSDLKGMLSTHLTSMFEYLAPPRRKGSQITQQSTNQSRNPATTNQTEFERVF
Cdk9/CyclinT1, sequence (O60563 whole entry partner, species assumed): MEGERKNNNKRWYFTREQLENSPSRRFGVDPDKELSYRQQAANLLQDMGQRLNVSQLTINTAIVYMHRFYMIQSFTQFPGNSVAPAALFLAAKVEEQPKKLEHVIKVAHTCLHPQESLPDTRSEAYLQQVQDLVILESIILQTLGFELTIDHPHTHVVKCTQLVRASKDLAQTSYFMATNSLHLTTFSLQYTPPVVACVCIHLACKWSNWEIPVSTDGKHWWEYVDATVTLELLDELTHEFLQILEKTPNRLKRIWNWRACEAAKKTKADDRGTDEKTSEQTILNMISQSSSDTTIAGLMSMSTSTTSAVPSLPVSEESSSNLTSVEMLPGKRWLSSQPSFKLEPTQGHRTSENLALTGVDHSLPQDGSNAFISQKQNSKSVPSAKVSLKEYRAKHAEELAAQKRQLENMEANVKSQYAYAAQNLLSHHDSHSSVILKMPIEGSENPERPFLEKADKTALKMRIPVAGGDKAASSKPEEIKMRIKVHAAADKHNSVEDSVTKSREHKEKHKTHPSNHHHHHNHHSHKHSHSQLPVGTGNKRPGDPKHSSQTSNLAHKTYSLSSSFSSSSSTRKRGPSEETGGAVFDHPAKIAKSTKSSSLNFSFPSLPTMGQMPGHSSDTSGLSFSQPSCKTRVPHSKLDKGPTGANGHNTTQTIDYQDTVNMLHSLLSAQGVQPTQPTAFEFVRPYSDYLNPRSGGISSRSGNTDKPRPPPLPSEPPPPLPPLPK

IC50 (Cdk2/CyclinE; 30 min, ATP 30 μM, read-out: IC50 CDK2/Cyclin E): 149 nM | Ki (Cdk2/CyclinE; 30 min, ATP 30 μM, read-out: Ki CDK2/Cyclin E): 89 nM | selectivity for Cdk2 than Cdk9 (Cdk2/CyclinE; in vitro kinase assay): greater than 30 fold | IC50 (Cdk9/CyclinT1; read-out: IC50 CDK9/Cyclin T1): 5710 nM | Ki (Cdk9/CyclinT1; read-out: Ki CDK9/Cyclin T1): 3430 nM | IC50 (CDK5/p25; 30 min, ATP 30 μM, read-out: IC50 CDK5/P35): 178 nM | Ki (CDK5/p25; 30 min, ATP 30 μM, read-out: Ki CDK5/P35): 107 nM | selectivity for Cdk5 than Cdk9 (CDK5/p25; in vitro kinase assay): greater than 30 fold | IC50 (Cdk5 [1]): 500 to 1000 nM | phospho-Ser549 synapsin I levels in the striatum (Cdk5 [2]; 2 h after injection): significantly reduced | phospho-Ser549 synapsin I levels in the striatum (Cdk5 [2]; 24 h after dosing): persisted | Cdk5-dependent phosphorylation in brain (Cdk5 [2]; 1 h post injection): remained unchanged | striatal phospho-Ser549 synapsin I levels, dose-response (Cdk5 [2]; 24 h post injection, 10, 50, 100 and 200 mg/kg I.V., approximately equal efficacy): significant reduction
SMILES: COc1cc(CC(=O)Nc2cc(C3CCC3)[nH]n2)cc(OC)c1OC [25–106, N-(5-cyclobutyl-1H-pyrazol-3-yl)-2-(3,4,5-trimethoxyphenyl)acetamide]
latency to immobility vs. vehicle (C57BL/6 mice): increased latency | total immobility time vs. vehicle (C57BL/6 mice): reduction in total immobility time
